Experimental data reported in patent US10123985B2, “Therapeutic strategies for treating mitochondrial disorders” (Whitehead Institute for Biomedical Research, priority 2015, dated 2018).
Entries after “also recorded” stand apart in the source; their conditions may differ.

Legend:
[1] = tested on: 143B cells; assay: Amino acid and TCA cycle metabolite GC-MS analysis, 143B cells; assay type: cell-based
Method: 143B and 143B CytB cells were seeded at 400,000 cells/well in 6 well dishes overnight. The following day, cells were washed 2 times in PBS and media was changed to proliferation assay media with or without the indicated treatments. […] Soluble content was then dried under nitrogen gas. Polar samples were derivatized and measured as detailed in (Lewis). Relative metabolite abundances were determined by integrating ion peak area (Metran) and normalized to norvaline internal extraction standard.

[2] = tested on: 143B cells; assay: Measurement of NAD+/NADH (NAD/NADH Glo) in 143B cells with respiration inhibitors; assay type: cell-based; conditions: 143B cells, ETC inhibitors plus AKB, 6 hours
Method: NAD^+/NADH measurements were done using a modified version of manufacturer instructions of NAD/NADH Glo Assay (Promega). Cells were plated and treated as for proliferation assays and cell extracts were taken 6 hours after treatment. For extraction, cells were quickly washed 3 times in ice cold PBS, extracted in 100 μL ice cold lysis buffer (1% Dodecyltrimethylammonium bromide (DTAB) in 0.2 N NaOH diluted 1:1 with PBS), and immediately frozen at −80° C. To measure NADH, 20 μL of sample was moved to PCR tubes and incubated at 75° C. for 30 min, where the basic conditions will selectively degrade NAD^+. To measure NAD^+, 20 μL of the samples was moved to PCR tubes containing 20 μL lysis buffer and 20 μL 0.4 N HCl and incubated at 60° C. for 15 min, where acidic conditions will degrade NADH. Following incubations, samples were allowed to equilibrate to room temperature and then quenched by neutralizing with 20 μL 0.25 M Tris in 0.2 N HCl (NADH) or 20 μL 0.5 M Tris base (NAD^+). Manufacturer instructions were followed thereafter to measure NAD^+/NADH.

[3] = tested on: Jurkat cells; assay: NAD+ and NADH measurements in Jurkat cells; assay type: cell-based, human; conditions: wild type Jurkat cells, phenformin (10 μM), aspartate (10 mM)
Method: Measurement of NAD^+/NADH was done by modification of manufacturer instructions for NAD^+/NADH Glo Assay (Promega). Jurkat cells were incubated in RPMI under the conditions listed for 8 hours before cell extracts were taken. To extract NAD^+/NADH, cells were centrifuged for 1 minute at 300×g, and washed 3 times by quickly resuspending in 15 mL PBS and centrifuging for 1 minute at 300×g. Pelleted samples were extracted in 100 μL ice cold lysis buffer (1% Dodecyltrimethylammonium bromide (DTAB) in 0.2 N NaOH diluted 1:1 with PBS) and frozen at −80° C. To measure NADH, 20 μL of extracts were heated to 75° C. for 30 min in the basic lysis buffer to degrade NAD^+. To measure NAD^+, samples were diluted 1:1 with 0.4 N HCl and incubated at 60° C. for 15 min where acidic conditions will degrade NADH. Following incubations, samples were quenched by adding 20 μL of 0.25 M Tris, 0.2 N HCl (NADH) or 20 μL of 0.5 M Tris base (NAD^+). Manufacturer instructions were then followed to measure NAD^+/NADH.

Row | SMILES | Aspartate level with AKB treatment ([1]; 143B CytB cells and inhibitor-treated 143B cells, relative to untreated cells) | Intracellular aspartate levels ([1]; rotenone treated 143B cells, 24 hours, AKB or 1 mM asparagine) | Cellular NAD+/NADH ratio [2] | NAD+/NADH ratio in cells with ETC inhibition [3]
1 | CCC(=O)C(=O)O [AKB, α-ketobutyrate] | restored aspartate to levels comparable to, or higher than, untreated cells | increased intracellular aspartate | restored NAD^+/NADH | 
2 | N[C@@H](CC(=O)O)C(=O)O [aspartate] |  |  |  | did not restore the NAD/NADH ratio in cells with ETC inhibition; also recorded: does not increase the NAD^+/NADH ratio in cells with ETC inhibition
